Measurements from patent US5196446A (priority 1991, dated 1993).

Experiments:
[1] = test system: other protein kinases; details: PTK inhibitors which compete with ATP; cited from earlier work
[2] = as a result of inhibiting other protein kinases; cited from earlier work
[3] = target: T1, EGF receptor tyrosine kinase (Homo sapiens, UniProt P00533); type: biochemical; details: for IC50: read-out: IC50 (concentration of inhibitor required to inhibit 50% of polyGAT phosphorylation)
T1 construct: WGA-purified EGF receptor from A431 cells; endogenous in cells; host or cells: A431 cells (solubilized, receptor enriched on WGA-agarose)

[4] = target: T2, EGF receptor (Homo sapiens, UniProt P00533); assay: Inhibition of EGFR autophosphorylation (A431 cell lysate, EGF stimulation); type: biochemical; parameters: EGF receptor in membranes of A431 cells; host or cells: membranes of A431 cells
Protocol: Inhibition of EGFR Autophosphorylation
A431 cells were grown to confluence on human fibronectin coated tissue culture dishes. After washing 2 times with ice-cold PBS, cells were lysed by the addition of 500 μl/dish of lysis buffer (50 mmol Hepes, pH 7.5, 150 mmol NaCl, 1.5 mmol Mg Cl2, 1 mmol EGTA, 10% glycerol, 1% triton X-100, 1 mmol PMSF, 1 mg/ml aprotinin, I mg/ml leupeptin) and incubating 5 minutes at 4° C. After EGF stimulation ([…] 10 minutes at 37° C.) immunoprecipitation was performed with anti EGF-R (Ab 108) and the autophosphorylation reaction (50 μl aliquots, 3 μCi [γ-^32 P]ATP) sample was carried out in the presence of 2 or 10 μM of compound, for 2 minutes at 4° C. The reaction was stopped by adding hot electrophoresis sample buffer. SDS-PAGE analysis (7.5% els) was followed by autoradiography and the reaction was quantitated by densitometry scanning of the x-ray films. In order to test the compounds for selective inhibition, the procedure is repeated using PDGF stimulation in place of EGF stimulation.

[5] = test system: cyclic adenosine 3',5'-monophosphate (cAMP)-dependent protein kinase; details: in words; compared with EGF receptor autophosphorylation; cited from earlier work
[6] = target: T2, EGF receptor; parameters: EGF receptor in membranes of A431 cells; host or cells: membranes of A431 cells; details: cited from earlier work
[7] = target: T2, EGF receptor; details: read-out: Km for ATP in autophosphorylation; 15° C.; 10-s assay
Protocol: ATP and EGF Dependence of Autophosphorylation
With use of the 10-s assay protocol, the EGF concentration dependence of EGFRK autophosphorylation is determined.

SMILES: O=c1c(O)c(-c2ccc(O)c(O)c2)oc2cc(O)cc(O)c12 [quercetin]
- inhibition of other protein kinases [1]: inhibit other protein kinases
- cytotoxicity [2]: highly cytotoxic

SMILES: O=c1c(-c2ccc(O)cc2)coc2cc(O)cc(O)c12 [genistein]
- inhibition of other protein kinases [1]: inhibit other protein kinases
- cytotoxicity [2]: highly cytotoxic

SMILES: N#CC(C#N)=Cc1c[nH]cn1 [Example 3, 4-Imidazolidene malononitrile]
- IC50 [3]: 2600 µM

SMILES: N#CC(=Cc1ccc2c(c1)OCO2)c1ccccn1 [Example 8, 2-(2-pyridyl)-3-[3,4-(methylenedioxy)phenyl]-2-propenenitrile]
- IC50 [4]: 1 µM

SMILES: O=CN/C=C/c1cc(O)ccc1O [erbstatin]
- concentration required to inhibit cAMP-dependent protein kinase [5]: much higher concentrations
- concentration required to inhibit EGF receptor autophosphorylation ([6]; in words, compared with cAMP-dependent protein kinase): Low concentrations
- inhibition of EGF receptor autophosphorylation ([6]; membranes of A431 cells): inhibits the autophosphorylation of the EGF receptor

SMILES: N#CC(C#N)=Cc1ccc2[nH]ccc2c1 [Example 5, 5-Indolidene malononitrile]
- IC50 [3]: 2200 µM

SMILES: Nc1ncnc2c1ncn2[C@@H]1O[C@H](COP(=O)(O)OP(=O)(O)OP(=O)(O)O)[C@@H](O)[C@H]1O [ATP, adenosine triphosphate]
- Km [7]: 7.2 µM
- Km ([3]; read-out: Km for ATP in the poly(GAT) assay): 2.9 µM
